The values that follow come from paper PMC12697895, “Vinburnine Sensitizes Radiotherapy Efficacy in Nasopharyngeal Carcinoma by Triggering Pyroptosis and Immune Responses via Activation of EDAR‐NFκB Pathway” (Advanced Science, 2025).

SMILES strings stand for the structures.

The test addresses T1, EDAR (endogenous, SUNE1 cells) (Homo sapiens, UniProt Q9UNE0).
T1 construct: endogenous protein in SUNE1 cells, detected by Western blot
T1 sequence (Q9UNE0 27-448): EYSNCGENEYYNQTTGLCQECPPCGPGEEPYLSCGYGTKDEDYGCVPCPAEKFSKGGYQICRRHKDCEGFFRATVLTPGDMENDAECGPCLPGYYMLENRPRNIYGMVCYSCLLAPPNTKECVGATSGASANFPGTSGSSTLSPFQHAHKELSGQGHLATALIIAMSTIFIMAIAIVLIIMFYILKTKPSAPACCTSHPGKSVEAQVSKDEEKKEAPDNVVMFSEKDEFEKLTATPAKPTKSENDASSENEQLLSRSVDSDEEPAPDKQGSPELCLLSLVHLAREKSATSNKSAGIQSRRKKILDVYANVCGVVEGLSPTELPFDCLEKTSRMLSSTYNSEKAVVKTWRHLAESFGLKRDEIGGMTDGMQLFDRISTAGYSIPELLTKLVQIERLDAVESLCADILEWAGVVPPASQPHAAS
As to the kind of experiment: CETSA (Western blot). The class given is cell-based. The settings on record: 10 µM vinburnine, intact SUNE1 cells, 12 h; six temperatures, 10 min.

As to `CC[C@]12CCCN3CCc4c(n(c5ccccc45)C(=O)C1)[C@@H]32` [vinburnine], the “CETSA (Western blot)” value is “EDAR was more stable in vinburnine‐pretreated samples than in control samples at various temperatures”.
